# Columns and labels:
# c-abl = assay: Phosphorylation of cdc2 kinase substrate c-abl, immunoprecipitation; assay type: cell-based, human; conditions: 50 units/ml TNF or 100 nM OA
# Procedure: Where c-abl (top panel) or p53 (bottom panel) phosphorylation was measured, cells were treated for the times indicated with 50 units/ml TNF or 100 nM OA. Where RB (middle panel) phosphorylation was measured, cells were treated for 15 min with the indicated doses of TNF (in units/ml) or OA (in nM). Cell lysates were immunoprecipitated with antibodies to either c-abl, RB, or p53 (from Oncogene Science). The immunoprecipitated proteins were subjected to 6 or 10% SDS-PAGE and autoradiography. Note that in the middle panel, the lesser extent of RB phosphorylation observed with 500 nM OA as compared to 100 nM OA is due to the loading of about four times less amount of protein in the 500 nM OA than the 100 nM OA-treated sample to the gel. At either concentration of OA, the ratio of the hyperphosphorylated form of RB is higher than the hypophosphorylated form of RB.
# Phosphorylation of cdc2 Kinase Substrates in Cells Treated with IL-1, TNF, or Okadaic Acid - It is noted from Fig. 1 (e and f) that the phosphorylation of myosin light chain and nucleolin are enhanced by TNF and okadaic acid treatment. Both proteins are known to be substrates of cdc2 kinase. In this connection, a question was raised as to whether other cdc2 kinase substrates which are known to be phosphorylated by okadaic acid treatment are also effected in TNF-treated human fibroblasts. […]
# IL-6 = assay: Northern blot analysis of IL-6 gene expression in human fibroblasts; assay type: cell-based; conditions: regularly maintained cells
# Procedure: Quiescent human fibroblasts were incubated with TNF (500 units/ml) (a) or OA (500 nM) (b) for 0, 30, 60 min after which total cellular RNA was extracted. Blots of RNA from these cells were hybridized to radiolabeled (10⁶ cpm/ml) Egr-1 cDNA probe. c, the blot in b was stripped and reprobed with c-jun cDNA. Note: Egr-1 mRNA probe was not completely stripped from the blot. The autoradiograph of the blot is presented. d, regularly maintained cells were incubated wither with no additions (control, 0 time) or with OA for 1, 3, 5, 7 h and Northern analysis was carried out with an IL-6 cDNA probe (ATCC, Rockville, MD, US).
# Preparation of RNA and Northern Analysis - Human fibroblasts (4 x 10⁶) were seeded in 175cm² tissue culture flasks and incubated at 37°C for 6 days in regular medium. The cells were fed with regular medium on day 3. On day 6 the medium was replaced by minimal essential medium containing 0.25% fetal calf serum and incubated for another 48 h to maintain the cells in a quiescent state. Quiescent or regularly maintained cells were treated with a specific agonist for the times indicated (see Fig. 7). The cells were harvested and total cytoplasmic RNA isolated by a one-step guanidinium thiocyanate/phenol/chloroform method. […] The blots were autoradiographed and quantitated by the Visage 2000 Image system (BioImage Products, Ann Arbor, MI, US).
# Egr-1 protein = assay type: cell-based; conditions: 2 h treatment, data not shown
# Procedure: Quiescent human fibroblasts were stimulated with MEM containing 0.5 µM okadaic acid in the presence or absence of cycloheximide (10 µg/ml) for the times indicated in Fig. 11. […] Treatment of cells with cycloheximide enhanced the induction of Egr-1 mRNA by okadaic acid at 1.5 and 3 h (Fig. 11). Similarly puromycin, like cycloheximide, also "superinduces" the induction of the Egr-1 mRNA by okadaic acid (data not shown). […] However, in view that protein phosphatase 1 (PP1) and protein phosphatase 2A (PP2A) regulate enzymes associated with cellular protein synthesis (Cohen, Annu. Rev. Biochem. 58, 453-508, 1989) the effect of okadaic acid on protein synthesis in mouse and human fibroblasts was also measured. […] By then the Egr-1 mRNA message was already induced. A corollary to this is a comparison of the amount of ³⁵S-methionine labelled Egr-1 protein immunoprecipitated by R5232 antibodies from protein phosphatase inhibitor-treated and control cells. […] Thus, the induction of the Egr-1 gene by phosphatase inhibitors is unlikely to be mediated by their late inhibitory effects on cellular protein synthesis.
structure (smiles),measurement,setting,value
C=C1[C@@H](O)[C@@H]2O[C@]3(CC[C@H](/C=C/[C@@H](C)[C@@H]4CC(C)=C[C@@]5(O[C@H](C[C@@](C)(O)C(=O)O)CC[C@H]5O)O4)O3)CC[C@H]2O[C@@H]1[C@@H](O)C[C@H](C)[C@H]1O[C@@]2(CCCCO2)CC[C@H]1C [okadaic acid],phosphorylation of c-abl (in words),c-abl,enhanced the phosphorylation
same,time of induction of IL-6,IL-6,7 h
same,amount of 35S-methionine labeled Egr-1 protein relative to control cells,Egr-1 protein,4 to 5 fold
